In patent publication EP4748833A1, “AMPK AGONIST AND USE THEREOF” (priority 2023, dated 2025):
pEC50: −log10 of the molar value. Where two headings read alike, the source gives them in different places.

Target: T1, AMPKα1β1γ1 (Homo sapiens, UniProt Q13131+Q9Y478)
T1 construct: purchased CARNA 02-113
Assay: In vitro assay for AMPK (α1β1γ1) enzyme agonist activity (TR-FRET)
Assay type: biochemical
Conditions: for Emax: 1 h, read-out: Top value
Method: Test compounds were dissolved in DMSO to prepare 10 mM stock solution, which was then diluted to the predetermined test concentrations using kinase buffer (50 mM HEPES, 1 mM EDTA, 10 mM MgCl2, 0.01% Brij-35, pH = 7.5). Into a 384-well plate were added 5 µL of AMPKα1β1γ1 (CARNA, 02-113), 2.5 µL of the diluted test compound solution, and 2.5 µL of a mixture of Ulight-CRBN and ATP, resulting in the following final concentrations: AMPKα1β1γ1 at 1.6 mg/L, Ulight-CRBN at 5 nM, and ATP at 0.1 mM. The components were mixed evenly, and reacted at room temperature for 1 hour. Subsequently, 5 µL of LANCE Detection Buffer (CR97-100, PerkinElmer) containing 40 mM EDTA was added. After standing for 5 minutes, 5 µL of 4× Eu-anti-phospho-CREB Antibody (TRF0200-M, PerkinElmer) was added, and the mixture was allowed to stand at room temperature for 1 h. The values of samples in each well were read using a microplate reader in TR-FRET mode (excitation wavelength: 320 nm; emission wavelengths: 665 nm and 615 nm). By comparing the values with those of the blank control group (1% DMSO) and the positive control group (1 µM A769662), the relative activity of AMPKα1β1γ1 at each test compound concentration (4.57 nM, 13.72 nM, 41.15 nM, 123.46 nM, 370.37 nM, 1111.11 nM, 3333.33 nM, and 10000 nM) was calculated, with the activity of 1 µM A769662 set as 100%. The data were analysed in GraphPad Prism 9 using a Dose-response-Stimulation four-parameter regression model to obtain the Top and EC50 values for the test compounds. [drawing 522] has a structure of A769662.

[1] = AMPKα1β1γ1 1.6 mg/L, ATP 0.1 mM, 1 hour at room temperature, four-parameter regression, read-out: EC50

T1 sequence (Q13131 whole entry): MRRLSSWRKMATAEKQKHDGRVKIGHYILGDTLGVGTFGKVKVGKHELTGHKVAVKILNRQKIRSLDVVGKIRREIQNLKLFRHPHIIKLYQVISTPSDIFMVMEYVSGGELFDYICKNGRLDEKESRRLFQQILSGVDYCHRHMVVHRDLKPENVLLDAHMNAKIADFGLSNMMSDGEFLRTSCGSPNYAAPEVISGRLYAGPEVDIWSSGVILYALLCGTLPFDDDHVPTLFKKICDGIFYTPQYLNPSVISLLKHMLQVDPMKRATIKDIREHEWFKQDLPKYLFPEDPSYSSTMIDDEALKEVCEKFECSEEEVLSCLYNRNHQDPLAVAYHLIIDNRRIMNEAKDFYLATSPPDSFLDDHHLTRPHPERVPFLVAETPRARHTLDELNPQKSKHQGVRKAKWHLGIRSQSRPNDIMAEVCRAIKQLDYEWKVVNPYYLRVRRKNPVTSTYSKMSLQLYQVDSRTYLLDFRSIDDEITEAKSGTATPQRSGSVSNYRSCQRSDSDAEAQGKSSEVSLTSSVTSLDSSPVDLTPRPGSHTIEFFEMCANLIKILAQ
T1 sequence (Q9Y478 whole entry): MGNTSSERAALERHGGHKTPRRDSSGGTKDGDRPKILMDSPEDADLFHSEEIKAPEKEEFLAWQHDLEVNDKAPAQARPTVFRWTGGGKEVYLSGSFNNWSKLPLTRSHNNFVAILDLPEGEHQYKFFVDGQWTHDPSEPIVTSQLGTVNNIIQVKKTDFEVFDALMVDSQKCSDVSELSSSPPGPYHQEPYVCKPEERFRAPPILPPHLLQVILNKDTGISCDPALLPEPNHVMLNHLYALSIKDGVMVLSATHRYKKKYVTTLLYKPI
T1 sequence (P54619 whole entry partner): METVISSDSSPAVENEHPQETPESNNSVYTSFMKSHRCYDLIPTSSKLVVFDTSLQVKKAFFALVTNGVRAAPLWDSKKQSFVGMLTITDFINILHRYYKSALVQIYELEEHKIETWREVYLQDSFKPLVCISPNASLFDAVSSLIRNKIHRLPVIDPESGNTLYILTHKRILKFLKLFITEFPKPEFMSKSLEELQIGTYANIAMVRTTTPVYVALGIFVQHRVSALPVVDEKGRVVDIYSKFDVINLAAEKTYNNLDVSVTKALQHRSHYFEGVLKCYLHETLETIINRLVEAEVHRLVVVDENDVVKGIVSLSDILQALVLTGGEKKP

Row | SMILES | Emax [%] | pEC50 [1] | pEC50
1 | O=C(O)Cc1c[nH]c2cc(Cl)c(-c3ccc(C4(O)CCC4)cc3)nc12 [Compound 1] | 50 to 70 | < 6.10 | 
2 | O=C(O)C(=O)c1c[nH]c2cc(Cl)c(-c3ccc(C4(O)CCC4)cc3)cc12 [Compound 2] | 70 to 100 | > 6.70 | 
3 | O=C(O)C(=O)c1c[nH]c2cc(Cl)c(-c3ccc(C4(O)CCC4)cc3)nc12 [Compound 3] | 50 to 70 | < 6.10 | 
4 | O=C(O)C(=O)c1c[nH]c2cc(Cl)c(-c3ccc(-c4ccccc4O)cc3)cc12 [Compound 4] | 50 to 70 | > 6.70 | 
5 | Cn1ccc2cc(-c3cc4c(C(=O)C(=O)O)c[nH]c4cc3Cl)ccc21 [Compound 5] | 70 to 100 | > 6.70 | 
6 | O=C(O)C(=O)c1c[nH]c2cc(Cl)c(-c3ccc(C4(CO)CC4)cc3)cc12 [Compound 6] | > 100 | > 6.70 | 
7 | COc1ccc(-c2cc3c(C(=O)C(=O)O)c[nH]c3cc2Cl)cc1 [Compound 7] | 70 to 100 | 6.10 to 6.70 | 
8 | O=C(O)C(=O)c1c[nH]c2cc(Cl)c(-c3ccc(-c4ccccc4)cc3)cc12 [Compound 8] | < 50 | > 6.70 | 
9 | O=C(NCc1ccccn1)c1c[nH]c2cc(Cl)c(-c3ccc(C4(O)CCC4)cc3)cc12 [Compound 9] | > 100 | < 6.10 | 
10 | O=C(NCC1COC1)c1c[nH]c2cc(Cl)c(-c3ccc(C4(O)CCC4)cc3)cc12 [Compound 10] | 50 to 70 | < 6.10 | 
11 | O=C(NCc1ccno1)c1c[nH]c2cc(Cl)c(-c3ccc(C4(O)CCC4)cc3)cc12 [Compound 11] | 70 to 100 | 6.10 to 6.70 | 
12 | O=C(NCc1cnoc1)c1c[nH]c2cc(Cl)c(-c3ccc(C4(O)CCC4)cc3)cc12 [Compound 12] | > 100 | < 6.10 | 
13 | O=C(Nc1ncc[nH]1)c1c[nH]c2cc(Cl)c(-c3ccc(-c4ccccc4)cc3)cc12 [Compound 13] | > 100 | < 6.10 | 
14 | O=C(NCc1ccco1)c1c[nH]c2cc(Cl)c(-c3ccc(C4(CO)CC4)cc3)cc12 [Compound 14] | > 100 | < 6.10 | 
15 | O=C(NCc1cccs1)c1c[nH]c2cc(Cl)c(-c3ccc(C4(CO)CC4)cc3)cc12 [Compound 15] | > 100 | < 6.10 | 
16 | O=C(NCc1ncco1)c1c[nH]c2cc(Cl)c(-c3ccc(C4(CO)CC4)cc3)cc12 [Compound 16] | 70 to 100 | 6.10 to 6.70 | 
17 | COC(=O)C(=O)c1c[nH]c2cc(Cl)c(-c3ccc(C4(CO)CC4)cc3)cc12 [Compound 17] | 70 to 100 | > 6.70 | 

Row | SMILES | Emax [%] | pEC50 [1] | pEC50
18 | CNC(=O)C(=O)c1c[nH]c2cc(Cl)c(-c3ccc(C4(CO)CC4)cc3)cc12 [Compound 18] | 50 to 70 | 6.10 to 6.70 | 
19 | Cn1ccc2cc(-c3cc4c(C(=O)NCc5ccco5)c(O)[nH]c4cc3Cl)ccc21 [Compound 19] | > 100 | 6.10 to 6.70 | 
20 | Cn1ccc2cc(-c3cc4c(C(=O)NCC(=O)O)c(O)[nH]c4cc3Cl)ccc21 [Compound 20] | > 100 | 6.10 to 6.70 | 
21 | O=C1Nc2cc(Cl)c(-c3ccc(C4(CO)CC4)cc3)cc2C1=CNCc1ccco1 [Compound 21] | < 50 | < 6.10 | 
22 | Cn1ccc2cc(-c3cc4c(cc3Cl)NC(=O)C4(C)C(=O)NCc3ccco3)ccc21 (centres unmarked) [Compound 22] |  | < 6.10 | 
23 | O=C(Nc1ccn[nH]1)c1c[nH]c2cc(Cl)c(-c3ccc(C4(CO)CC4)cc3)cc12 [Compound 23] | > 100 | > 6.70 | 
24 | O=C(Nc1ncco1)c1c[nH]c2cc(Cl)c(-c3ccc(-c4ccccc4)cc3)cc12 [Compound 24] | > 100 |  | < 6.10
25 | CN(Cc1cccs1)C(=O)c1c[nH]c2cc(Cl)c(-c3ccc(C4(CO)CC4)cc3)cc12 [Compound 25] | < 50 |  | < 6.10
26 | CN(C(=O)c1c[nH]c2cc(Cl)c(-c3ccc(C4(CO)CC4)cc3)cc12)c1cc[nH]n1 [Compound 27] | > 100 |  | < 6.10
27 | O=C(NCc1ccco1)c1c(O)[nH]c2cc(Cl)c(-c3ccc(C4(CO)CC4)cc3)cc12 [Compound 31] | > 100 | 6.10 to 6.70 | 
28 | Cn1ccc2cc(-c3cc4c(C(=O)NCc5ncco5)c(O)[nH]c4cc3Cl)ccc21 [Compound 32] | 70 to 100 | 6.10 to 6.70 | 
29 | O=C(Nc1cc[nH]n1)c1c[nH]c2cc(Cl)c(-c3ccc(C4(O)CCC4)cc3)cc12 [Compound 33] | > 100 | 6.10 to 6.70 | 
30 | O=C(Nc1cc[nH]n1)c1c[nH]c2cc(Cl)c(-c3ccc(-c4ccccc4O)cc3)cc12 [Compound 34] | > 100 |  | 6.10 to 6.70
31 | O=C(NCc1nnn[nH]1)c1c[nH]c2cc(Cl)c(-c3ccc(C4(CO)CC4)cc3)cc12 [Compound 35] | > 100 | > 6.70 | 
32 | O=C(NCc1ccco1)c1c[nH]c2cc(Cl)c(-c3ccc(-c4ccccc4O)cc3)cc12 [Compound 36] | 50 to 70 | > 6.70 | 
33 | O=C(NCc1ccco1)c1c(O)[nH]c2cc(Cl)c(-c3ccc(-c4ccccc4O)cc3)cc12 [Compound 37] | > 100 | 6.10 to 6.70 | 
